US12533353B2, “Methods of treatment of cancer comprising CDC7 inhibitors” (CARNA BIOSCIENCES, INC., priority 2018, dated 2026)
Where two headings read alike, the source gives them in different places. Each block holds one molecule with its values, some of them ahead of it.

What was measured:
[1] = tested on: Colo-205 colorectal adenocarcinoma cells; assay: Sequential treatment: SRA141 pre-treatment then partner agent, ATPlite; format: cell-based, human
MOLM-13 = assay: Combination of SRA141 with targeted agents, CTG and CTBlue, 72 hours, Bliss CI; format: cell-based; settings: for combination effect with SRA141: MOLM-13, 72 hours
Description: The anti-apoptotic gene BCL-2 was inhibited in Molm-13 cells by treatment with 0.1 μM ABT-199 as previously described (see Examples 6 and 24). Cells were treated with 0.1 μM ABT-199 and SRA141 for 72 hours at SRA141 concentrations of 0.04 μM to 3.30 μM.

MV411 = assay: as above; settings: MV411, 72 hours
MOLM-13 cells [2] = assay: Sequential treatment: SRA141 pre-treatment then partner agent, ATPlite; format: cell-based, human; settings: 200 nM SRA141 pre-treatment 48 hrs compared to DMSO pre-treatment
MOLM-13 cells [3] = assay: Co-treatment combination screen, synergy score, ATPlite; format: cell-based, human; settings: simultaneous combination treatment, 72 hours
Description: (§1) The combination screen was performed using the co-treatment dosing schedule for SRA141 and the partner compound. Both enhancee (SRA141) and enhancer (partner compound) were added at time zero (0 h). Cells were exposed to SRA141 and the enhancer for the entire 72-hour treatment time. All data points were collected via automated processes and were subject to quality control and analyzed using proprietary software.
(§2) The Growth Inhibition (GI) was utilized as a measure of cell growth. GI percentages are calculated by applying the following test and equation: […]
(§3) This formula is derived from the Growth Inhibition calculation used in the National Cancer Institute's NCI-60 high throughput screen. […] These GI calculations were used in all single agent and combination data analysis for the combination screen.
(§4) To measure combination effects in excess of Loewe additivity, a scalar measure was used to characterize the strength of synergistic interaction termed the Synergy Score. The Synergy Score is calculated as: Synergy Score=log fX log fYΣ max(0,Idata)(Idata−ILoewe)
(§5) The fractional inhibition for each component agent and combination point in the matrix is calculated relative to the median of all vehicle-treated control wells. The Synergy Score equation integrates the experimentally-observed activity volume at each point in the matrix in excess of a model surface numerically derived from the activity of the component agents using the Loewe model for additivity. Additional terms in the Synergy Score equation (above) are used to normalize for various dilution factors used for individual agents and to allow for comparison of synergy scores across an entire experiment. The inclusion of positive inhibition gating or an Idata multiplier removes noise near the zero effect level, and biases results for synergistic interactions at that occur at high activity levels. Combinations with higher maximum Growth Inhibition (GI) effects or those which are synergistic at low concentrations will have higher Synergy Scores. Those combinations with Synergy Scores that statistically supersede baseline self-cross values can be considered synergistic. The magnitude of GI effects may be linked to the growth rate of cells which varies for each cell line examined.
(§6) Loewe Volume Score is used to assess the overall magnitude of the combination interaction in excess of the Loewe additivity model. Loewe Volume is particularly useful when distinguishing synergistic increases in a phenotypic activity (positive Loewe Volume) versus synergistic antagonisms (negative Loewe Volume).

COLO-205 cells = assay: as above; format: cell-based, human; settings: simultaneous combination treatment, 72 hours
Description: as §1, §2, §3, §4, §5, §6

SW620 = assay: Combination of SRA141 with targeted agents, CTG and CTBlue, 72 hours, Bliss CI; settings: SW620, 72 hours
Colo-205 = assay: as above; settings: Colo-205, 72 hours
Molm-16 = assay: AML 3D culture, 5 days; format: cell-based; settings: Molm-16 cell line
Description: (§7) The activity of SRA141 was investigated in in vitro and ex vivo three-dimensional (3D) cultures prepared from three AML cell lines (EOL-1, Molm-16 and MV-4-11) and three AML PDX models (AM5512, AM7440 and AM7577), respectively. Tumor cultures were treated with SRA141 (0.08 to 33 μM) for 5 days.

MV-4-11 = assay: AML 3D culture, 5 days; format: cell-based; settings: MV-4-11 cell line
Description: as §7

EOL-1 = assay: AML 3D culture, 5 days; format: cell-based; settings: EOL-1 cell line
Description: as §7

AM5512 = assay: AML PDX ex vivo 3D culture, 5 days; format: cell-based
Description: as §7

AM7440 = assay: AML PDX ex vivo 3D culture, 5 days; format: cell-based
Description: as §7

AML-blast progenitors = assay: 3D growth in methylcellulose matrix, 14 days; format: cell-based
Description: (§8) The anti-proliferative activity of SRA141 (0.3-5 μM) was also evaluated in additional 3D growth studies conducted in a methylcellulose growth matrix using normal human myeloid (n=3) and AML-blast progenitors incubated for 14 days.

[4] = tested on: normal human myeloid progenitors (normal bone marrow); assay: 3D growth in methylcellulose matrix, 14 days; format: cell-based
Description: as §8

AM7577 = assay: AML PDX ex vivo 3D culture, 5 days; format: cell-based
Description: as §7

SMILES: C[C@@]1(CO)[C@H](O)CC[C@@]2(C)[C@H]1CC[C@H]1C[C@@H]3C[C@@]12CC[C@]3(O)CO [aphidicolin]
EC50 fold change of partner agent ([1]; 1 μM SRA141 pre-treatment 48 hrs compared to DMSO pre-treatment): 4.60

SMILES: CC1=C(/C=C/C(C)=C/C=C/C(C)=C/C(=O)O)C(C)(C)CCC1 [Tretinoin]
combination effect with SRA141 (MOLM-13): slight additive effects
combination effect with SRA141 (MV411): slight additive effects

EC50 fold change of partner agent (MOLM-13 cells [2]): 2.63
SMILES: CC(=O)Nc1cccc(-n2c(=O)n(C3CC3)c(=O)c3c(Nc4ccc(I)cc4F)n(C)c(=O)c(C)c32)c1 [Trametinib]

SMILES: Cn1ncnc1[C@H]1c2n[nH]c(=O)c3cc(F)cc(c23)N[C@@H]1c1ccc(F)cc1 [BMN673]
synergy with SRA141 (MOLM-13 cells [3]): strong synergies

EC50 fold change of partner agent (MOLM-13 cells [2]): 3.25
EC50 fold change of partner agent ([1]; 200 nM SRA141 pre-treatment 48 hrs compared to DMSO pre-treatment): 3.3
SMILES: CO[C@H]1C[C@@H]2CC[C@@H](C)[C@@](O)(O2)C(=O)C(=O)N2CCCC[C@H]2C(=O)O[C@H]([C@H](C)C[C@@H]2CC[C@@H](OCCO)[C@H](OC)C2)CC(=O)[C@H](C)/C=C(\C)[C@@H](O)[C@@H](OC)C(=O)[C@H](C)C[C@H](C)/C=C/C=C/C=C/1C [everolimus]

SMILES: CC1(C)CCC(CN2CCN(c3ccc(C(=O)NS(=O)(=O)c4ccc(NCC5CCOCC5)c([N+](=O)[O-])c4)c(Oc4cnc5[nH]ccc5c4)c3)CC2)=C(c2ccc(Cl)cc2)C1 [ABT-199]
synergy with SRA141 (MOLM-13 cells [3]): strong synergies
Combination Index (MOLM-13; 0.1 μM ABT-199 with SRA141 at 0.12, 0.37, 1.10 and 3.30 μM, 72 hours): less than 1
combination effect with SRA141 (MOLM-13): act synergistically

SMILES: COc1c(OCCCN2CCOCC2)ccc2c1N=C(NC(=O)c1cnc(N)nc1)N1CCN=C21 [Copanlisib]
synergy with SRA141 (COLO-205 cells): Strong synergies
combination effect with SRA141 (SW620): slight additive effects
combination effect with SRA141 (MOLM-13): slight additive effects
combination effect with SRA141 (MV411): slight additive effects
combination effect with SRA141 (Colo-205): slight additive effect

IC50 (Molm-16; MOLM16): 70 nM
IC50 (MV-4-11; Homo sapiens, MV4-11): 50 nM
IC50 (EOL-1; Homo sapiens, EOL1): 2 nM
IC50 (AM5512): 8890 nM
IC50 (AM7440): 270 nM
SMILES: Nc1ccn([C@@H]2O[C@H](CO)[C@@H](O)[C@@H]2O)c(=O)n1 [Cytarabine, cytosine arabinoside, reference compound]
primary AML samples responding with a Therapeutic Index [(Primary AML IC50)÷(BMNC control IC50)] (AML-blast progenitors; 9 primary AML samples): 2 out of 9
IC50 (AML-blast progenitors; AML810 censored, read-out: mean IC50, AML samples): ~4 nM
IC50 (AML-blast progenitors; AML-blast progenitor 180, read-out: IC50): 3.6 nM
IC50 (AML-blast progenitors; AML-blast progenitor 190, read-out: IC50): 6.1 nM
IC50 (AML-blast progenitors; AML-blast progenitor 200, read-out: IC50): 2.8 nM
IC50 (AML-blast progenitors; AML-blast progenitor 250, read-out: IC50): 2.2 nM
IC50 (AML-blast progenitors; AML-blast progenitor 260, read-out: IC50): 3 nM
IC50 (AML-blast progenitors; AML-blast progenitor 717, read-out: IC50): 3.8 nM
IC50 (AML-blast progenitors; AML-blast progenitor 810 (sample censored), read-out: IC50): 9.6 nM
IC50 (AML-blast progenitors; AML-blast progenitor 915, read-out: IC50): 8.1 nM
IC50 (AML-blast progenitors; AML-blast progenitor 917, read-out: IC50): 5.7 nM
IC50 (AML-blast progenitors; with AML 810, read-out: Mean AML-blast progenitor IC50 (with AML 810)): 5 ± 2.6 nM
IC50 (AML-blast progenitors; without AML 810, read-out: Mean AML-blast progenitor IC50 (without AML 810)): 4.4 ± 2 nM
IC50 ([4]; Normal bone marrow 111, read-out: IC50): 4.8 nM
IC50 ([4]; Normal bone marrow 525 (first line), read-out: IC50): 3.7 nM
IC50 ([4]; Normal bone marrow 525 (second line), read-out: IC50): 3.8 nM
IC50 ([4]; mean of 3 samples, read-out: Mean normal bone marrow IC50): 4.1 ± 0.6 nM
IC50 ([4]; read-out: mean IC50, normal bone marrow preparations): ~4 nM

SMILES: N.N.[Cl][Pt][Cl] [Cisplatin]
IC50 (Molm-16): 380 nM
IC50 (MV-4-11): 620 nM
IC50 (EOL-1): 640 nM
IC50 (AM7577): 4180 nM
IC50 (AM5512): 11900 nM
IC50 (AM7440): 1340 nM

EC50 fold change of partner agent (MOLM-13 cells [2]): 2.63
SMILES: C=C(c1ccc(C(=O)O)cc1)c1cc2c(cc1C)C(C)(C)CCC2(C)C [Bexarotene]
synergy with SRA141 (MOLM-13 cells [3]): strong synergies
combination effect with SRA141 (MOLM-13): slight additive effects
combination effect with SRA141 (Colo-205): antagonistic effect
